pKd: −log10 of the molar value.
Experiments:
E. coli D22 strain = assay: microbe, parasite or virus in culture; format: cell-based
Text: E. coli strain D22 (F-, IpxC101, proA23, lac-28, tsx-81, trp-30, his-51, tufA1, rpsL173(strR), ampCp-1 was purchased at E. coli Genetic Stock Center (Yale University) and used in the determination of MIC and in the peptide penetration assays. E. coli ATCC23724 cells were used to infect D. melanogaster flies. 70S ribosomes were purified from the E. coli MRE600 strain (Accession AY140951) and BL21 (DE3) pLys strain was used for production of the DnaN protein.
E. coli strains were cultivated on either agar or liquid 1× Mueller Hinton broth unless specified. MIC assays were performed in duplicate in 96-well microtiter plates on the basis of the protocol recommended by the Clinical and Laboratory Standards Institute. Briefly, a mix of 5-6 fresh (less than 36 hours) colonies grown on MH agar plates were inoculated in 3 ml of MH broth and incubated for about 16 h at 37° C. under agitation. 30 μl of this saturated culture were inoculated in 3 ml of fresh medium and allowed to grow until OD600 nm of about 0.6-0.8. Dilution to an OD600 nm of 0.002 was made in MH broth. Within a time laps not exceeding 30 min, 50 μl of this cell suspension was added to 50 μl of MH broth (containing or not the peptide/antibiotic diluted in MH broth) in wells of a 96-well round bottom microwell plate (Greiner; final cell density about 2 to 5×10^5 cfu/ml). Plates were incubated at 37° C. for 18-24 h and final turbidity of each well was measured at 620 nm using a Multiskan FC microplate reader (Thermo Scientific). MIC was defined as the minimal antibiotic concentration that result in no increase of turbidity at that time. Each MIC determination was performed in duplicate and at least in two independent experiments. Plating of 75 μl of the content of the wells of interest on LB Agar plates was used to determine the MBC that is defined by a decrease of at least 99.9% of cell viability as compared to the number of viable cells in the inoculum (about 2 to 5×10^4 cfu).

E. coli D22 cells = conditions: FIG. 1
Procedure: FIG. 1 concerns the analysis of peptide penetration into E. coli cells. (a) Fluorescence microscopy of E. coli cells exposed to the three different FITC labeled peptides.
In order to analyse the penetration capacity of the peptides in E. coli D22 cells, FITC-labeled peptides were added to 1 ml of bacterial cultures (OD600=0.8) at a final concentration of 8 μg/ml. The cells were allowed to acquire the peptides for 1 h at 37° C., washed 3 times with 0.5 ml PBS, fixed with 1% formaldehyde solution in PBS for 45 min at room temperature, washed 3 times with 0.5 ml PBS and finally resuspended in 50 μl PBS. Cells were visualized using a Leica DM5500 microscope equipped with a 100× objective and images were processed using Fiji software. One-way ANOVA statistical analysis was performed with the R package.

[1] = test system: E. coli 70S ribosome (^Ec70S); assay: ITC, peptide interaction with E. coli 70S ribosome; format: binding; conditions: ITC 30° C., Table 2B, ^Ec70S; for pKd: FITC peptides (*), values not well defined, weak interaction; for ΔG / ΔH / −TΔS: Ni = no specific interaction, FITC peptides (*) values not well defined
Procedure: E. coli MRE600 cells were grown at 37° C. in LB medium until OD^600=1. Cells were centrifuged at 4° C., and pellets were resuspended in buffer A (20 mM Tris HCl pH 7.5; 200 mM NH4Cl; 20 mM MgCl2; 0.1 mM EDTA; 6 mM β-mercaptoethanol) and lysed using a French press at 1.6 kbar. The crude lysate was centrifuged (18 200 rpm) for 30 mn at 4° C. The supernatant was further centrifuged (47000 rpm) at 4° C. for 4 hours and the pellet resuspended in 12.5 ml of buffer A. This solution was laid on a 30% sucrose cushion and centrifuged (34 000 rpm) for 19 hours at 4° C. The ribosome pellet was resuspended in 12.5 ml buffer B (20 mM Tris HCl pH 7.5; 50 mM NH4Cl; 10 mM MgCl2; 0.1 mM EDTA; 6 mM β-mercaptoethanol) and centrifuged again (18 200 rpm) for 1 hour at 4° C. The supernatant was concentrated on Centrikon 100K (Millipore) and washed extensively with ITC 70S buffer. Ribosome concentration was determined by UV absorption at 260 nm. Samples were snap frozen in liquid nitrogen and kept at −80° C.
(§1) ITC experiments were performed on a iTC200 (Microcal Malvern Panalytical) or PEAQ-ITC instrument (Microcal Malvern Panalytical). The E. coli SC were washed extensively with ITC buffer (R1 buffer: 10 mM Hepes pH 7.4, 0.15 M NaCl, 3 mM EDTA) on Centrikon 10K at 4° C. before ITC experiments. […] Similarly, E. coli 70S ribosome particles were also washed extensively with ITC 70S buffer (50 mM Tris HCl pH7.5, 30 mM KCl, 70 mM NH4Cl, 7 mM MgCl2, 1 mM DTT, 5% glycerol) on Centrikon 100K at 4° C. before ITC experiments. Peptides (100 to 400 μM) were titrated at 30° C. (303.15 K) in sequential injections (usually 2 μl each) into a SC (20 or 30 μM) or 70S (10 to 15 μM) solution. Data were corrected from control experiments in which peptides were injected in ITC buffer solution. Each titration was performed at least twice. Analyses of experimental data were performed with AFFINImeter software (https://www.affinimeter.com; S4S, Santiago de Compostela, Spain).
The lack of interaction with the ribosome of E. coli has been measured by ITC at 30° C.:
The interactions of these peptides with the E. coli SC (beta ring) and the ribosome were measured by ITC at […]: […]

[2] = target: T1, E. coli SC (^EcSC, beta ring, DnaN) (Escherichia coli, UniProt P0A988); assay: ITC, peptide interaction with E. coli sliding clamp; format: binding; conditions: for ΔH (kcal/mole): ITC 30° C. (303.15 K); for ΔH (kcal/mole) / Kd (nM) / ΔG (kcal/mole) / −TΔS (kcal/mole): Table 2A, ^EcSC, Ni = no specific interaction
T1 construct: inferred from the pET15b vector and the Ni-NTA/imidazole purification; made in house; host or cells: E. coli BL21 (DE3) pLys
T1 sequence (P0A988 whole entry): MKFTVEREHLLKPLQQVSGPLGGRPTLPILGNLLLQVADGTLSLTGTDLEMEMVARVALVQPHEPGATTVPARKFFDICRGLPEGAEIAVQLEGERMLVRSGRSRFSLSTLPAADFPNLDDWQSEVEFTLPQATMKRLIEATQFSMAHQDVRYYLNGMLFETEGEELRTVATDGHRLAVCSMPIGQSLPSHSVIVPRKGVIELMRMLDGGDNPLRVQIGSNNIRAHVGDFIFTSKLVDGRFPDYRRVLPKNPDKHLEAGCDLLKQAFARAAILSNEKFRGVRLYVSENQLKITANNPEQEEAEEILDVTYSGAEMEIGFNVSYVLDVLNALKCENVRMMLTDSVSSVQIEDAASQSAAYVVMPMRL
Procedure: The DnaN protein was expressed from plasmids pET15b, containing the dnaN gene from E. coli, transfected in BL21 (DE3) pLys E. coli strain. Cells were grown in LB at 37° C. to OD 0.5, then induced by IPTG (0.1 mM) at 28° C. overnight. DnaN protein was first enriched on a Ni-NTA column, eluted with an imidazole step (300 mM) and further purified on a Source Q column in buffer containing 20 mM Tris HCl pH 7.5, 0.5 mM EDTA and 10% glycerol, using a gradient from 0 to 0.5 M NaCl. After a final ultracentrifugation (45K, 1 h, 20° C.), soluble proteins were concentrated on a Centricon 30K (Millipore) in the same buffer and stored at 4° C. in 2 M ammonium sulfate.
as §1, with “[…] […]” for “Peptides (100 to 400 μM) were titrated at 30° C. (303.15 K) in sequential injections (usually 2 μl each) into a SC (20 or 30 μM) or 70S (10 to 15 μM) solution.”

Human PCNA = Human PCNA (Homo sapiens, UniProt P12004); assay: ITC, peptide interaction with human PCNA; format: binding; conditions: ITC 30° C., Human PCNA
Chain of Human PCNA (P12004 whole entry): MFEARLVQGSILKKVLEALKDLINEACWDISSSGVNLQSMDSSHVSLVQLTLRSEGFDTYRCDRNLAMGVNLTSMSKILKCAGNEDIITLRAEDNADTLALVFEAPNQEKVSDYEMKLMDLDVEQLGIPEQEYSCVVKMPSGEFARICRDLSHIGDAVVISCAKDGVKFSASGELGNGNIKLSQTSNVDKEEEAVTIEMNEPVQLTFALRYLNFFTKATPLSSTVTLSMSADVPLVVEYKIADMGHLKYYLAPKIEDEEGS
Procedure: The inventors have compared the affinities of the prototypical P7 SC-binding peptide for the bacterial SC and for the eukaryotic functional homolog “Proliferating Cell Nuclear Antigen” PCNA. The same analysis was performed with the DPD1 peptide that contains a well-described specific PCNA Interacting Peptide (PIP) sequence ([…]).

## CC[C@H](C)[C@H](NC(=O)[C@@H]1CCCN1C(=O)[C@H](CCCNC(=N)N)NC(=O)[C@@H]1CCCN1C(=O)[C@@H]1CCCN1C(=O)[C@@H](NC(=O)[C@@H]1CCCN1C(=O)[C@H](CCCNC(=N)N)NC(=O)[C@@H]1CCCN1C(=O)[C@H](CC(C)C)NC(=O)[C@H](Cc1ccc(O)cc1)NC(=O)[C@H](CO)NC(=O)CNC(=O)[C@H](CCCCN)NC(=O)[C@H](CC(=O)O)NC(=O)[C@@H](NC(=O)[C@H](CCCCN)NC(=O)c1ccc2c(c1)C(=O)OC21c2ccc(O)cc2Oc2cc(O)ccc21)C(C)C)[C@@H](C)O)C(=O)N[C@@H](Cc1ccc(O)cc1)C(=O)N[C@@H](CC(N)=O)C(=O)N[C@@H](CCCNC(=N)N)C(=O)N[C@@H](CC(N)=O)C(=O)NCC(=O)N1CCC[C@H]1C(=O)N[C@@H](CCCNC(=N)N)C(=O)N[C@@H](CC1CCCCC1)C(=O)N[C@@H](Cc1ccccc1)C(=O)N[C@@H](CCC(N)=O)C(=O)N[C@@H](CC(C)C)C(=O)N[C@@H](CC(=O)O)C(=O)O [Peptide P72]
E. coli D22 strain; D22 strain
  MIC (μM): >269.9 µM
E. coli D22 cells; FITC staining after exposure to equal amounts
  entry into E. coli cells, times less efficiently than P122: about 3 times
[1]
  pKd: < 5.00
  ΔG: -5.98 kcal/mol
  ΔH: -8.92 kcal/mol
  −TΔS: 2.94 kcal/mol
[2]; ITC 30° C.
  interaction with ^EcSC, in words: do not interact
  Kd (nM): Ni
  ΔG (kcal/mole): Ni
  −TΔS (kcal/mole): Ni
[2]
  ΔH (kcal/mole): Ni

## peptide that contains a well-described specific PCNA Interacting Peptide (PIP) sequence (QKKITDYF) [DPD1]
Human PCNA
  pKd: 6.80
  ΔH: -9.94 kcal/mol
[2]; ITC 30° C., specificity comparison with PCNA
  interaction with E.coli SC, in words: no interaction

## CC[C@H](C)[C@H](NC(=O)[C@@H]1CCCN1C(=O)[C@H](CCCNC(=N)N)NC(=O)[C@@H]1CCCN1C(=O)[C@@H]1CCCN1C(=O)[C@@H](NC(=O)[C@@H]1CCCN1C(=O)[C@H](CCCNC(=N)N)NC(=O)[C@@H]1CCCN1C(=O)[C@H](CC(C)C)NC(=O)[C@H](Cc1ccc(O)cc1)NC(=O)[C@H](CO)NC(=O)CNC(=O)[C@H](CCCCN)NC(=O)[C@H](CC(=O)O)NC(=O)[C@@H](NC(=O)[C@H](CCCCN)NC(=O)c1ccc2c(c1)C(=O)OC21c2ccc(O)cc2Oc2cc(O)ccc21)C(C)C)[C@@H](C)O)C(=O)N[C@@H](Cc1ccc(O)cc1)C(=O)N[C@@H](CC(N)=O)C(=O)N[C@@H](CCCNC(=N)N)C(=O)N[C@@H](CC(N)=O)C(N)=O [Peptide P122]
E. coli D22 strain; D22 strain
  MIC (μM): 181 to 362 µM
  MIC (μg/ml): 512 to 1024 µg/mL
E. coli D22 strain; E. coli D22
  fold increase in MIC as compared to Py: 64 to 512 fold
E. coli D22 cells; average FITC signal of more than 100 bacteria
  penetration into E. coli cells, times more efficiently than P72 or P150: about 3 times
[1]
  pKd: < 5.00
  ΔG: -6.91 kcal/mol
  ΔH: -20.1 kcal/mol
  −TΔS: 13.3 kcal/mol
[2]; ITC 30° C.
  interaction with ^EcSC, in words: do not interact
  Kd (nM): Ni
  ΔG (kcal/mole): Ni
  −TΔS (kcal/mole): Ni
[2]
  ΔH (kcal/mole): Ni
